Measurements from patent US11001557B2 (priority 2017, dated 2021).
Like-named read-outs stand apart in the source and are kept apart here.

How the values were obtained:
SFTSV [1] = assay: microbe, parasite or virus in culture; assay type: cell-based, severe fever with thrombocytopenia syndrome virus (SFTSV); conditions: for EC50: Severe fever with thrombocytopenia syndrome virus, Vero, 72 h
Vero cells = conditions: African green monkey
in vitro = conditions: African green monkey
SFTSV [2] = conditions: cited from earlier work
[3] = read-out: EC50: 50% effective concentration (concentration of a drug suppressing SFTSV proliferation by 50%)

Structure (SMILES)	EC50 (SFTSV [1]; [3]) [µM]	CC50 (Vero cells) [µM]	CC50 (in vitro) [µM]	further results
CCN(CC)Cc1cc(Nc2ccnc3cc(Cl)ccc23)ccc1O [Compound 1, Amodiaquine, reference compound]	19.1 ± 5.1	> 100	–	anti-SFTSV effect (in words) (SFTSV [1]): have an anti-SFTSV effect
CCN(CC)Cc1cc(Nc2ccnc3cc(F)ccc23)ccc1O [Compound 2, 4-(7-fluoroquinolin-4-ylamino)-2-diethylaminomethylphenol]	36.6 ± 9.3	> 100	–	–
CCN(CC)Cc1cc(Nc2ccnc3cc(Br)ccc23)ccc1O [Compound 3, 4-(7-bromoquinolin-4-ylamino)-2-diethylaminomethylphenol]	31.1 ± 16.8	> 100	–	melting point: 194.3 to 195.8 °C
CCN(CC)Cc1cc(Nc2ccnc3cc(I)ccc23)ccc1O [Compound 4, 4-(7-iodoquinolin-4-ylamino)-2-diethylaminomethylphenol]	15.6 ± 4.9	> 100	–	melting point: 189.7 to 190.4 °C
Oc1ccc(Nc2ccnc3cc(Cl)ccc23)cc1CN1CCCC1 [Compound 5, 4-(7-chloroquinolin-4-ylamino)-2-(1-pyrrolidinylmethyl)phenol]	14.6	–	41.1	–
CCCN(CCC)Cc1cc(Nc2ccnc3cc(Cl)ccc23)ccc1O [Compound 6, 4-(7-chloroquinolin-4-ylamino)-2-dipropylaminomethylphenol]	58.7	–	> 100	melting point: 163.2 to 164.3 °C
CCCCN(C)Cc1cc(Nc2ccnc3cc(I)ccc23)ccc1O [Compound 12, 4-(7-iodoquinolin-4-ylamino)-2-butylmethylaminomethylphenol]	–	–	> 50	EC50 (SFTSV [1]): 6.2 µM
CCCCCN(C)Cc1cc(Nc2ccnc3cc(I)ccc23)ccc1O [Compound 13, 4-(7-iodoquinolin-4-ylamino)-2-methylpentylaminomethylphenol]	–	–	> 50	EC50 (SFTSV [1]): 3.4 µM
CCCCCCN(C)Cc1cc(Nc2ccnc3cc(I)ccc23)ccc1O [Compound 14, 4-(7-iodoquinolin-4-ylamino)-2-hexylmethylaminomethylphenol]	–	–	> 50	EC50 (SFTSV [1]): 8.7 µM
NC(=O)c1nc(F)c[nH]c1=O [favipiravir, reference compound]	–	–	–	anti-SFTSV effect (in words) (SFTSV [1]): have an anti-SFTSV effect; anti-SFTSV effect already reported (SFTSV [2]): already reported to have an anti-SFTSV effect
NC(=O)c1ncn([C@@H]2O[C@H](CO)[C@@H](O)[C@H]2O)n1 [ribavirin, reference compound]	–	–	–	anti-SFTSV effect (in words) (SFTSV [1]): have an anti-SFTSV effect; anti-SFTSV effect already reported (SFTSV [2]): already reported to have an anti-SFTSV effect
